What all share (assay type): biochemical
Test [1] concerns human genomic DNA (about 1.3 kb) with dUTP added. Kind of test: Evaluation of uracil (dUTP) sensitivity by PCR with dUTP added to the reaction. The note with it: for Evaluation of dUTP resisitance on a 11-point scale: closer to 0 = stronger sensitivity to dUTP, closer to 10 = lower sensitivity, summary of Examples 1 to 3; for dUTP resistance: dUTP added to 0.5, 5, 50, 100, 200 μM, about 1.3 kb, 30 cycles, 1 U enzyme. As for the experimental part: The uracil sensitivity of the modified DNA polymerase of the present invention can be evaluated by PCR. For example, a dUTP solution is added at a final concentration of 0.5 μM to 200 μM to a common PCR reaction solution containing DNA as a template, a buffer, magnesium, dNTPs, primers, and a DNA polymerase to be evaluated, and thermal cycling is performed. After the reaction, the presence or absence of PCR products is confirmed by ethidium bromide-stained agarose electrophoresis, and the uracil sensitivity can be evaluated by the concentration of accepted dUTP. With a DNA polymerase having high uracil sensitivity, the extension reaction is inhibited by the addition of a small amount of dUTP, and PCR products cannot be confirmed. With a DNA polymerase having low uracil sensitivity, gene amplification by PCR can be confirmed without problem, even if a high concentration of dUTP is added. The modified DNA polymerase with low uracil sensitivity in the present invention refers to a DNA polymerase such that when optimum thermal cycling is performed using any primers and DNA as a template in a reaction buffer optimum for the enzyme, even if a high concentration of dUTP is added, an extension reaction is not inhibited and PCR products can be confirmed, compared to wild-type DNA polymerase, which has no mutation.
More specifically, 10× PCR buffer included in KOD-Plus-Ver. 2 (produced by Toyobo Co. Ltd.) or 10× PCR buffer included in Pfu DNA Polymerase (produced by Agilent) is used; dUTP (produced by Roche) is added to 50 μl of individual reaction solutions containing 1× PCR buffer, 1.5 mM MgSO4, dNTPs (dATP, dTTP, dCTP, and dGTP) in an amount of 0.2 mM, primers represented by SEQ ID NOs: 25 and 26 in an amount of 15 pmol for amplifying about 1.3 kb, 10 ng of human genomic DNA (produced by Roche), and 1 U of each respective enzyme, to final concentrations of 0.5, 5, 50, 100, and 200 μM. PCR is performed using a GeneAmp PCR system 9700 (Applied Biosystems) on the following schedule; preliminary reaction at 94° C. for 30 seconds, followed by 30 cycles, each cycle consisting of 98° C. for 10 seconds, 65° C. for 30 seconds, and 68° C. for 1 minute and 30 seconds. After the completion of each individual reaction, 5 μl of each of the resulting reaction solutions is subjected to agarose electrophoresis, followed by ethidium bromide staining. The uracil sensitivity can be evaluated by confirming amplified DNA fragments of about 1.3 kb under ultraviolet irradiation.
PCR was performed by the following method to evaluate uracil sensitivity. For PCR, components included in KOD-Plus-Ver. 2 (produced by Toyobo Co. Ltd.) were used. dUTP (produced by Roche) was added to 50 μl of individual reaction solutions containing 1× PCR buffer, 1.5 mM MgSO4, dNTPs (dATP, dTTP, dCTP, dGTP) in an amount of 0.2 mM, primers represented by SEQ ID NOs: 25 and 26 in an amount of 15 pmol for amplifying about 1.3 kb, 10 ng of human genomic DNA (produced by Roche), and 1 U of each respective enzyme, to final concentrations of 0.5, 5, 50, 100, and 200 μM. PCR was performed using a GeneAmp PCR system 9700 (produced by Applied Biosystems) on the following schedule: preliminary reaction at 94° C. for 30 seconds, followed by 30 cycles, each cycle consisting of 98° C. for 10 seconds, 65° C. for 30 seconds, and 68° C. for 1 minute and 30 seconds. After the completion of each individual reaction, 5 μl of each of the resulting reaction solutions was subjected to agarose electrophoresis, followed by ethidium bromide staining. Under ultraviolet irradiation, amplified DNA fragments of about 1.3 kb were confirmed. FIGS. 3, 4, 7, and 8 show the results.

The subject of the next test is 482 bp of human β-globin. Nature of the test: PCR amplification of 482 bp of human β-globin with dUTP in place of dTTP. Also noted: key to Results of PCR in the presence of dUTP 481 bp: A: Amplified; B: Amplified (faint band); C: Not amplified. The note with it: for Results of PCR in the presence of dUTP 481 bp: dTTP replaced by dUTP, 35 cycles. As for the experimental part: 482 bp of human β-globin was amplified to compare the amplification difference between the case of using dTTP and the case of using dUTP in PCR, and the sensitivity to dUTP was examined. For amplification, each enzyme was used after being mixed with 1 μg of a KOD antibody per U of the enzyme. For PCR, components included in KOD-Plus-Ver. 2 (produced by Toyobo Co. Ltd.) were used. General dNTPs (dATP, dTTP, dCTP, dGTP) in an amount of 0.2 mM were added to 50 μl of individual reaction solutions, and dNTPs (dATP, dUTP, dCTP, dGTP) in an amount of 0.2 mM in which dTTP was replaced by dUTP were added to 50 μl of individual reaction solutions. The reaction solutions contained 1× PCR buffer, 1.5 mM MgSO4, primers represented by SEQ ID NOs: 27 and 28 in an amount of 15 pmol for amplifying […], 10 ng of human genomic DNA (produced by Roche), and 1 U of each respective enzyme mixed with the antibody. PCR was performed using a GeneAmp PCR system 9700 (produced by Applied Biosystems) on the following schedule: preliminary reaction at 94° C. for 2 minutes, followed by 35 cycles, each cycle consisting of 98° C. for 10 seconds and 68° C. for 1 minute. After the completion of each individual reaction, each of the resulting reaction solutions was analyzed using to a DNA-1000 kit for MultiNA (produced by Shimadzu Corporation) to confirm amplified DNA fragments. FIGS. 5 and 6 show the results.

For test [2], the system named is 1.3 kbp, 2.8 kbp, and 3.6 kbp of human β-globin. Kind of test: Amplification of long-chain DNA in PCR using dUTP. Further details: key to Results of PCR in the presence of dUTP 1.3 kbp / Results of PCR in the presence of dUTP 2.8 kbp / Results of PCR in the presence of dUTP 3.6 kbp: A: Amplified; B: Amplified (faint band); C: Not amplified. The note with it: dTTP replaced by dUTP, 35 cycles. As for the experimental part: Amplification of 1.3 kbp, 2.8 kbp, and 3.6 kbp of human β-globin in PCR using dUTP was compared. For amplification, each enzyme was used after being mixed with 1 μg of a KOD antibody per U of the enzyme. For PCR, components included in KOD-Plus-Ver. 2 (produced by Toyobo Co. Ltd.) were used. 50 μl of individual reaction solutions containing 1× PCR buffer, 1.5 mM MgSO4, dNTPs (dATP, dUTP, dCTP, dGTP) in an amount of 2 mM in which dTTP was replaced by dUTP, primers in an amount of 15 pmol (SEQ ID NOs: 25 and 26 for amplification of 1.3 kbp; SEQ ID NOs: 26 and 29 for amplification of 2.8 kbp; SEQ ID NOs: 30 and 31 for amplification of 3.6 kbp), 10 ng of human genomic DNA (produced by Roche), and 1 U of each respective enzyme mixed with the antibody were used. PCR was performed using a GeneAmp PCR system 9700 (Applied Biosystems) on the following schedule: preliminary reaction at 94° C. for 2 minutes, followed by 35 cycles, each cycle consisting of 98° C. for 10 seconds, 65° C. for 30 seconds, and 68° C. for about 1 minute per kbp (1 minute and 30 seconds for amplification of 1.3 kbp; 3 minutes for amplification of 2.8 kbp; 4 minutes for amplification of 3.6 kbp). As a control, amplification was also performed using Taq DNA polymerase. Taq DNA polymerase produced by Toyobo Co. Ltd. mixed with Anti-Taq High (produced by Toyobo Co. Ltd.) was used. 50 μl of a reaction solution containing 1× buffer included in Blend Taq, dNTPs (dATP, dUTP, dCTP, dGTP) in an amount of 2 mM in which dTTP was replaced by dUTP, primers in an amount of 10 pmol the same as the above), 10 ng of human genomic DNA (produced by Roche), and 2.5 U of the enzyme mixed with the antibody was used. PCR was performed using a GeneAmp PCR system 9700 (produced by Applied Biosystems) on the following schedule: preliminary reaction at 94° C. for 2 minutes, followed by 35 cycles, each cycle consisting of 94° C. for 30 seconds, 65° C. for 30 seconds, and 68° C. for about 1 minute per kbp (1 minute and 30 seconds for amplification of 1.3 kbp; 3 minutes for amplification of 2.8 kbp; 4 minutes for amplification of 3.6 kbp). After the completion of each individual reaction, 5 μl of each of the resulting reaction solutions was subjected to agarose electrophoresis, followed by ethidium bromide staining, and the amount of amplified DNA fragments was confirmed under ultraviolet irradiation. FIGS. 9 and 10 show the results.

Regarding “KOD H147E/P36K: KOD H147E (exo(+)) mutant with P36K”, in test [1], the “Evaluation of dUTP resisitance on a 11-point scale” value (“Evaluation of dUTP resisitance” for short) was 4 and the “dUTP resistance” value is 100 µM. Also, in the test on 482 bp of human β-globin, the “Results of PCR in the presence of dUTP 481 bp” value (shortened to “Results of PCR … of dUTP 481 bp”) is listed as “A”.

“KOD Y7A/P36R/V93K: modified KOD DNA polymerase with Y7A, P36R and V93K”: the “Evaluation of dUTP resisitance” value in test [1] came out at 0. In addition, the “Results of PCR … of dUTP 481 bp” value with 482 bp of human β-globin is given as “C”. Further, in test [2], the “Results of PCR in the presence of dUTP 1.3 kbp” value (“Results of PCR … of dUTP 1.3 kbp” for short) is “C”, the “Results of PCR in the presence of dUTP 2.8 kbp” value (from here on “Results of PCR … of dUTP 2.8 kbp”) was “C” and the “Results of PCR in the presence of dUTP 3.6 kbp” value (from here on “Results of PCR … of dUTP 3.6 kbp”) is on record as “C”.

As to “KOD H147E/Y7A/P36H/V93K: KOD H147E (exo(+)) mutant with Y7A, P36H and V93K”, the “Evaluation of dUTP resisitance” value in test [1] stood at 0. In the test on 482 bp of human β-globin, the “Results of PCR … of dUTP 481 bp” value is reported as “C”. Also, in test [2], the “Results of PCR … of dUTP 1.3 kbp” value is given as “C”, the “Results of PCR … of dUTP 2.8 kbp” value was “C” and the “Results of PCR … of dUTP 3.6 kbp” value is given as “C”.

For “KOD Y7A/P36K: modified KOD DNA polymerase with Y7A and P36K”, the “sensitivity to dUTP / amount of amplification, comparison with single mutants or wild type” value in test [1] (dUTP added to PCR (FIGS. 3 and 4)) is “more tolerant of the addition of high concentration of dUTP and provided a larger amount of amplification”. Further, the “PCR amplification of 482 bp with dUTP” value with 482 bp of human β-globin (100% dUTP instead of dTTP (FIGS. 5 to 8)) is on record as “allowed for PCR amplification”.

Consider “KOD Y7A/P36H/V93K: modified KOD DNA polymerase with Y7A, P36H and V93K”, for which the “Evaluation of dUTP resisitance” value in test [1] is given as 0. Also, the “Results of PCR … of dUTP 481 bp” value with 482 bp of human β-globin is recorded as “C”. Further, in test [2], the “Results of PCR … of dUTP 1.3 kbp” value is “C”, the “Results of PCR … of dUTP 2.8 kbp” value was “C” and the “Results of PCR … of dUTP 3.6 kbp” value is listed as “C”.

As for “KOD N210D/P36K: KOD N210D (exo(−)) mutant with P36K”, in test [1], the “Evaluation of dUTP resisitance” value was found to be 8 and the “dUTP resistance” value is more than 200 µM. Also, the “Results of PCR … of dUTP 481 bp” value with 482 bp of human β-globin is listed as “A”.

Take “KOD H147E/Y7A/P36R/V93K: KOD H147E (exo(+)) mutant with Y7A, P36R and V93K”: the “Evaluation of dUTP resisitance” value in test [1] was determined as 0. For the same molecule, in the test on 482 bp of human β-globin, the “Results of PCR … of dUTP 481 bp” value is “C”. For the same molecule, in test [2], the “Results of PCR … of dUTP 1.3 kbp” value is listed as “C”, the “Results of PCR … of dUTP 2.8 kbp” value is recorded as “C” and the “Results of PCR … of dUTP 3.6 kbp” value was “C”.

B1: KOD P36K: modified KOD DNA polymerase with P36K (protein, listed as Thermococcus kodakaraensis)
chain: MILDTDYITEDGKPVIRIFKKENGEFKIEYDRTFEKYFYALLKDDSAIEEVKKITAERHGTVVTVKRVEKVQKKFLGRPVEVWKLYFTHPQDVPAIRDKIREHPAVIDIYEYDIPFAKRYLIDKGLVPMEGDEELKMLAFDIETLYHEGEEFAEGPILMISYADEEGARVITWKNVDLPYVDVVSTEREMIKRFLRVVKEKDPDVLITYNGDNFDFAYLKKRCEKLGINFALGRDGSEPKIQRMGDRFAVEVKGRIHFDLYPVIRRTINLPTYTLEAVYEAVFGQPKEKVYAEEITTAWETGENLERVARYSMEDAKVTYELGKEFLPMEAQLSRLIGQSLWDVSRSSTGNLVEWFLLRKAYERNELAPNKPDEKELARRRQSYEGGYVKEPERGLWENIVYLDFRSLYPSIIITHNVSPDTLNREGCKEYDVAPQVGHRFCKDFPGFIPSLLGDLLEERQKIKKKMKATIDPIERKLLDYRQRAIKILANSYYGYYGYARARWYCKECAESVTAWGREYITMTIKEIEEKYGFKVIYSDTDGFFATIPGADAETVKKKAMEFLKYINAKLPGALELEYEGFYKRGFFVTKKKYAVIDEEGKITTRGLEIVRRDWSEIAKETQARVLEALLKDGDVEKAVRIVKEVTEKLSKYEVPPEKLVIHEQITRDLKDYKATGPHVAVAKRLAARGVKIRPGTVISYIVLKGSGRIGDRAIPFDEFDPTKHKYDAEYYIENQVLPAVERILRAFGYRKEDLRYQKTRQVGLSAWLKPKGT
Take B1: in test [1], the “Evaluation of dUTP resisitance” value is 3 and the “dUTP resistance” value was 100 µM. Further, in test [1] (some amount of dUTP added), the “PCR products on addition of dUTP” value is listed as “PCR products were confirmed”. For the same molecule, in the test on 482 bp of human β-globin, the “Results of PCR … of dUTP 481 bp” value is given as “A”.

These data come from patent publication US20150218534A1, “MODIFIED DNA POLYMERASE” (TOYOBO CO., LTD., priority 2012, published 2015).
